How the values were obtained:
WM3734 melanoma cells = experiment: Cell viability assay (EZQuant), WM3734; format: cell-based; details: Homo sapiens; AP alone, 72 h, WM3734, BRAF V600E
Experimental: (§2) Cell proliferation assays were conducted in 96-well plates at 25-30% starting confluence to determine the effect of exposure to increasing concentrations of PLX4720 or AP with or without 1 mM DFMO for 72 hours. Cell viability was assessed using the EZQuant™ Cell Quantifying Kit (Alstem) in which WST-8 is reduced by the metabolic activity of live cells to formazan dye. […] The 72 hour IC50 values for AP were calculated using non-linear regression (sigmoidal dose response) of the plot of percentage inhibition versus the log of inhibitor concentration in GraphPad Prism (v5; GraphPad Software, Inc., La Jolla, Calif.).

[1] = test system: polyamine transport system (PTS); experiment: Radiolabeled spermidine transport assay, human melanoma cell lines; format: cell-based; details: ± SD
Experimental: Polyamine transport in tumor cells was evaluated essentially as described (Kramer, et al. (1993) J. Cell Physiol., 155(2):399-407; Nilsson, et al. (2005) Cancer Cell 7(5):433-444). Radioactive spermidine (Net-522 Spermidine Trihydrochloride, [Terminal Methylenes-^3H(n)]) from Perkin Elmer was used (specific activity: 16.6 Ci/mmol). Cells were plated in 96 well plates and grown to approximately 80% confluence. Half of the cells were treated with 1 mM DFMO for 40 hours. After repeated washing with PBS, ^3H-spermidine was added at 1 μM and incubated for 60 minutes at 37° C. Cells were then washed with cold PBS containing 50 μM spermidine and lysed in 0.1% SDS at 37° C. for 30 minutes with mixing. Cell lysates were then aliquoted for scintillation counting and for protein assay using a mini-BioRad assay. Results were expressed as CPM/g protein.

B16F10-BRAF^V600E cells = experiment: Cell viability assay, B16F10-BRAF V600E; details: Mus musculus, read-out: IC50 (cytotoxicity)
Experimental: (§1) Cell proliferation assays were conducted in 96-well plates at 25-30% starting confluence to determine the effect of exposure to increasing concentrations of PLX4720 or AP with or without 1 mM DFMO for 72 hours. Cell viability was assessed using the EZQuant™ Cell Quantifying Kit (Alstem) in which WST-8 is reduced by the metabolic activity of live cells to formazan dye. For spheroids treated with PLX4720 and/or AP, viability of the spheroid cells was estimated by quantification of the ATP present using a CellTiter-Glo Luminescent Cell Viability Assay (Promega Co., Madison, Wis.). The 72 hour IC50 values for AP were calculated using non-linear regression (sigmoidal dose response) of the plot of percentage inhibition versus the log of inhibitor concentration in GraphPad Prism (v5; GraphPad Software, Inc., La Jolla, Calif.).

[2] = test system: BRAF-mutant melanoma tumor; experiment: BRAF-mutant melanoma tumor in mice treated with PLX4720; format: in vivo; details: FIG. 11, co-treatment with PLX4720, begun when the tumor has regressed
Experimental: FIG. 11 provides a graph of tumor volume in mice over time after treatment with PLX4720 alone or PLX4720 with delayed administration of AP and DFMO.
In addition to the above, the efficacy of AP in vivo was also tested.

WM3743 melanoma cells = experiment: Cell viability assay (EZQuant), WM3743; format: cell-based; details: Homo sapiens; AP alone, 72 h, WM3743, BRAF WT
Experimental: as §2

WM3211 melanoma cells = experiment: Cell viability assay (EZQuant), WM3211; format: cell-based; details: Homo sapiens; AP alone, 72 h, WM3211, BRAF WT
Experimental: as §2

[3] = test system: 1205Lu melanoma spheroids; experiment: 3D spheroid culture viability (CellTiter-Glo); format: cell-based, human; details: FIG. 10, 25 μM each drug, 48 h, 3D spheroids on NCPs
Experimental: BRAF^V600E mutant 1205Lu melanoma cells were seeded at 1×10^4 cells in each well of the […] NCPs. When spheroids were formed on day 3, the 3D cultures of spheroids were treated with PLX4720 (25 μM) and/or AP (25 μM). 2D monolayer cultures of 1205Lu melanoma cells were also treated with PLX4720 (25 μM) and/or AP (25 μM). After drug treatment for 48 hours, the viability of spheroids and monolayer cultures was assayed using the CellTiter-Glo Luminescent Cell Viability Assay. The percent cell survival in each treatment group was calculated relative to cells treated with medium only under the same conditions. As controls, the growth of cells without drug treatment under each condition was normalized as 100% separately. The means are presented±SD.
The inorganic nanoscale scaffolding NanoCulture plates (NCP) were purchased from SCIVAX. The base of each NCP is constructed with a transparent cyclo-olefin resinous sheet with a nanoscale indented pattern. To form spheroids, 1205Lu human melanoma cells were seeded in 96-well NCPs at 1×10^4 cells/well in MCDB153 (Sigma)/Leibovitz's L-15 (Cellgro) medium (4:1 ratio) supplemented with 2% heat-inactivated fetal calf serum and 2 mM CaCl2 and incubated in a conventional cell incubator at 37° C. in an atmosphere of 5% CO2 and normal O2 levels. […]

B16F10-pBABE cells = experiment: Cell viability assay, B16F10-pBABE; details: Mus musculus, read-out: IC50 (cytotoxicity)
Experimental: as §1

BRAF^WT melanoma cells = experiment: Cell viability, panel of BRAF WT human melanoma cell lines; format: cell-based; details: summary of Table 1, BRAF WT lines, read-out: IC50 (sensitivity to AP)
Excerpt: A panel of human melanoma cell lines with different BRAF mutational status were screened for their sensitivity to the BRAF inhibitor PLX4720. […] The IC50 value is defined as the concentration of the compound (PLX4720) required to inhibit 50% cell viability compared to an untreated control. This approach allowed for the ranking of the relative sensitivity of each cell line to the PLX4720 BRAF inhibitor. Thus, the sensitivity of these BRAF^V600E melanoma cells to BRAF inhibition with PLX4720 reflected their functional dependence on mutant BRAF signaling to sustain their proliferation and viability. Likewise, it was tested whether BRAF^V600E cells were more sensitive compared to BRAF^WT melanoma cells to increasing concentrations of the cytotoxic polyamine transport ligand, AP.

[4] = test system: BRAF^V600E YUMM1.7 melanoma cells; experiment: Cell viability assay (EZQuant), YUMM1.7; format: cell-based, murine; details: FIGS. 9A, 9B, 72 h
Experimental: FIG. 9A: Murine BRAF^V600E YUMM1.7 melanoma cells and BRAF^WT B16F10 melanoma cells were treated with increasing doses of AP. After 72 hours of culture, cell survival was determined via EZQuant™ Cell Quantifying assay. IC50 values were calculated by GraphPad Prism 6. FIG. 9B: Murine BRAF^V600E YUMM1.7 melanoma cells and BRAF^WT B16F10 melanoma cells were treated with increasing doses of AP±1 mM DFMO or with PLX4720. After 72 hours of culture, cell survival was determined via EZQuant™ Cell Quantifying assay. IC50 values were calculated by GraphPad Prism 6. […] Cells were washed with cold PBS containing 50 μM spermidine, and cell lysates were assayed for CPM ^3H-spermidine per mg protein by scintillation counting.

SMILES: CNCNCNCc1ccc(CNCNCNC)c2ccccc12 [AP]
- IC50 (WM3734 melanoma cells): 2.2 µM
- PTS Activity (cpm ^3H Spd/μg Protein) ([1]; 1205Lu, column group AP (without DFMO)): 230 ± 22 cpm ^3H Spd/μg Protein
- PTS Activity (cpm ^3H Spd/μg Protein) ([1]; WM88, column group AP (without DFMO)): 302 ± 18 cpm ^3H Spd/μg Protein
- PTS Activity (cpm ^3H Spd/μg Protein) ([1]; WM983B, column group AP (without DFMO)): 487 ± 64 cpm ^3H Spd/μg Protein
- PTS Activity (cpm ^3H Spd/μg Protein) ([1]; WM989, column group AP (without DFMO)): 304 ± 28 cpm ^3H Spd/μg Protein
- PTS Activity (cpm ^3H Spd/μg Protein) ([1]; WM3211, column group AP (without DFMO)): 278 ± 58 cpm ^3H Spd/μg Protein
- PTS Activity (cpm ^3H Spd/μg Protein) ([1]; WM3451, column group AP (without DFMO)): 130 ± 21 cpm ^3H Spd/μg Protein
- PTS Activity (cpm ^3H Spd/μg Protein) ([1]; WM3734, column group AP (without DFMO)): 444 ± 46 cpm ^3H Spd/μg Protein
- PTS Activity (cpm ^3H Spd/μg Protein) ([1]; WM3743, column group AP (without DFMO)): 117 ± 23 cpm ^3H Spd/μg Protein
- IC50 (B16F10-BRAF^V600E cells): 24.4 µM
- regrowth of BRAF inhibitor-resistant tumor [2]: significantly retards the regrowth
- IC50 (WM3743 melanoma cells): 8.9 µM
- IC50 (WM3211 melanoma cells): 4.5 µM
- cell viability of spheroid cultures [3]: similarly sensitive
- IC50 (B16F10-pBABE cells): 36.4 µM
- IC50 (BRAF^WT melanoma cells): > 4 µM
- sensitivity to AP (IC50 compared to BRAF WT B16F10 cells) [4]: significantly more sensitive

Source: patent publication US20190365673A1, “Immunomodulatory Compounds” (Lankenau Institute for Medical Research, priority 2016, published 2019)
